In data set [1] the test system is Myzus persicae. Put plainly: Myzus persicae oral test. In kind it is in vivo. As to conditions: after 5 days. The protocol: Solvent: 100 parts by weight of acetone
To produce a suitable active compound formulation, 1 part by weight of active compound is dissolved with the stated parts by weight of solvent and made up to the desired concentration with water.
50 μl of the active compound formulation are transferred into microtitre plates and made up to a final volume of 200 μl with 150 μl of IPL41 insect medium (33%+15% sugar). Subsequently, the plates are sealed with parafilm, which a mixed population of green peach aphids (Myzus persicae) within a second microtitre plate is able to puncture and imbibe the solution.
(§1) After 5 days, the efficacy in % is determined. 100% means that all the aphids have been killed; 0% means that no aphids have been killed.

A further data set deals with Diabrotica balteata. Put plainly: Diabrotica balteata spray test. It is filed as in vivo. Conditions: application rate 160 μg/well, beetle larvae on germinated wheat grains, after 7 days. The protocol:
Diabrotica balteata—Spray Test
(§2) Solvent: 78 parts by weight of acetone • • 1.5 parts by weight of dimethylformamide
(§3) Emulsifier: alkylaryl polyglycol ether
(§4) To produce a suitable active compound formulation, 1 part by weight of active compound is dissolved with the specified parts by weight of solvent and made up to the desired concentration with water containing an emulsifier concentration of 1000 ppm. To produce further test concentrations, the formulation is diluted with emulsifier-containing water.
Pre-swollen wheat grains (Triticum aestivum) are incubated in a multiwell plate filled with agar and a little water for one day (5 seed grains per well). The germinated wheat grains are sprayed with an active compound preparation of the desired concentration. Subsequently, each cavity is infected with 10-20 beetle larvae of Diabrotica balteata.
After 7 days, the efficacy in % is determined. 100% means that all maize plants have grown as in the untreated, uninfected control; 0% means that no maize plant has grown.

The subject of data set [2] is Myzus persicae. Put plainly: Myzus persicae spray test. It is filed as in vivo. As to conditions: application rate 500 g/ha, Chinese cabbage leaf discs, after 5 days. The procedure:
Myzus persicae—Spray Test
as §2, §3, §4
Discs of Chinese cabbage leaves (Brassica pekinensis) infested by all stages of the green peach aphid (Myzus persicae) are sprayed with an active compound formulation of the desired concentration.
as §1

Data set [3] in a line: log P by HPLC (EEC directive 79/831 Annex V.A8). In kind it is physicochemical. The procedure: The log P values reported in the tables and preparation examples above were determined in accordance with EEC directive 79/831 Annex V.A8 by HPLC (High Performance Liquid Chromatography) using a reversed-phase column (C18). Temperature 43° C. The calibration is effected with unbranched alkan-2-ones (having 3 to 16 carbon atoms), for which the log P values are known.

The mark [4] stands for this setting: HPLC, reversed-phase column (C18), 43° C, acidic (HCOOH), read-out: log P (HCOOH).
[5] abbreviates: Myzus persicae, po, 120 h, application rate 4 ppm, read-out: efficacy.

Like-named read-outs stand apart in the source and are kept apart here.

In turn, `O=C(CCl)c1c([O-])[n+]2ccccc2n1Cc1ccc(Cl)nc1` [Example I-001] registered an efficacy with Myzus persicae [1] (application rate 20 ppm) of 100%.

As for `O=C(c1c([O-])[n+]2ccccc2n1Cc1ccc(Cl)nc1)C(F)(F)F` [Example I-002], the efficacy in the data set with Diabrotica balteata, in the data set with Myzus persicae [1] (application rate 4 ppm), in the data set on Myzus persicae [1] (application rate 20 ppm) and with Myzus persicae [2] was 100% throughout.

Turning to `CC(=O)c1c([O-])[n+]2ccccc2n1Cc1ccc(Cl)nc1` [Example I-003], the efficacy in the data set with Myzus persicae [1] (application rate 4 ppm) is listed as 90%; with Myzus persicae [1] (application rate 20 ppm) it was 100%.

With `O=C(Cn1cc(Cl)cn1)c1c([O-])[n+]2ccccc2n1Cc1cnc(Cl)s1` [Example I-004, 2-[2-(4-Chloropyrazol-1-yl)acetyl]-1-[(2-chlorothiazol-5-yl)methyl]imidazo[1,2-a]pyridin-4-ium-3-olate], the pest or weed control at 20 ppm with Myzus persicae [1] (Myzus persicae, po, 120 h, application rate 20 ppm, read-out: efficacy) was 90%. Moreover, the chromatographic logP in data set [3] (setting [4]) turned out to be 1.83.

In the data set with Myzus persicae [1] (application rate 20 ppm), `O=C(Cn1cc(Cl)cn1)c1c([O-])[n+]2ccccc2n1Cc1ccc(Cl)nc1` [Example I-006] yielded an efficacy of 100%.

For `COCC(=O)c1c([O-])[n+]2ccccc2n1Cc1ccc(Cl)nc1` [Example I-009], the efficacy in the data set on Myzus persicae [1] (application rate 4 ppm) and with Myzus persicae [1] (application rate 20 ppm) was 100% in each case.

Regarding `O=C(c1c([O-])[n+]2ccccc2n1Cc1cncnc1)C(F)(F)F` [Example I-012], the efficacy in the data set on Myzus persicae [1] (application rate 4 ppm) and in the data set on Myzus persicae [1] (application rate 20 ppm) was 100% each time.

Turning to `CCC(=O)c1c([O-])[n+]2ccccc2n1Cc1cnc(Cl)s1` [Example I-014], the efficacy with Diabrotica balteata is on record as 80%; with Myzus persicae [1] (application rate 4 ppm) it was 100%.

On to `O=C(NCC1CC1)c1c([O-])[n+]2ccccc2n1Cc1cnc(Cl)s1` [Example I-016], for which the efficacy is reported as 100% in the data set with Diabrotica balteata and 90% in the data set with Myzus persicae [1] (application rate 4 ppm).

Consider `CNC(=O)c1c([O-])[n+]2ccccc2n1Cc1cnc(Cl)s1` [Example I-017], for which the efficacy in the data set with Diabrotica balteata and in the data set on Myzus persicae [1] (application rate 4 ppm) was 100% in each case.

For `O=C(CBr)c1c([O-])[n+]2ccccc2n1Cc1cnc(Cl)s1` [Example I-020], the results for the efficacy in the data set on Myzus persicae [1] (application rate 4 ppm) and in the data set on Myzus persicae [2] were 100% and 90%, respectively.

In turn, `O=C(NCc1ccccc1)c1c([O-])[n+]2ccccc2n1Cc1cnc(Cl)s1` [Example I-022] showed an efficacy in the data set on Diabrotica balteata of 100%.

With `CCOC(=O)C(=O)c1c([O-])[n+]2ccccc2n1Cc1cnc(Cl)s1` [Example I-029, 1-[(2-chlorothiazol-5-yl)methyl]-2-(2-ethoxy-2-oxoacetyl)imidazo[1,2-a]pyridin-4-ium-3-olate], in the data set on Myzus persicae [1] (setting [5]), the pest or weed control at 4 ppm came out at 100%. The compound also yielded a chromatographic logP in data set [3] of 1.55.

For `O=C(c1ccc(Cl)cc1)c1c([O-])[n+]2ccccc2n1Cc1cnc(Cl)s1` [Example I-030], the efficacy in the data set on Diabrotica balteata and in the data set with Myzus persicae [1] (application rate 4 ppm) was 100% each time.

Turning to `O=C(c1c([O-])[n+]2ccccc2n1Cc1cnc(Cl)s1)C1CC1` [Example I-031], the efficacy in the data set on Diabrotica balteata is 100%; in the data set on Myzus persicae [1] (application rate 4 ppm), 90%.

On to `COC(=O)C(=O)c1c([O-])[n+]2ccccc2n1Cc1cnc(Cl)s1` [Example I-032], for which the efficacy in the data set on Myzus persicae [1] (application rate 4 ppm) and in the data set on Myzus persicae [2] was 100% throughout.

Turning to `O=C(OCC(F)(F)F)C(=O)c1c([O-])[n+]2ccccc2n1Cc1cnc(Cl)s1` [Example I-036], the results for the efficacy with Myzus persicae [1] (application rate 4 ppm) and with Myzus persicae [2] were 100% and 90%, respectively.

As to `O=C(OCc1cccc(Cl)n1)C(=O)c1c([O-])[n+]2ccccc2n1Cc1cnc(Cl)s1` [Example I-042], the efficacy with Myzus persicae [2] is 100%.

As for `Cc1ccc[n+]2c([O-])c(C(=O)C(=O)OCC3CC3)n(Cc3cnc(Cl)s3)c12` [Example I-047], the pest or weed control at 160 µg/disc, 160 µg/well in the data set on Diabrotica balteata (Diabrotica balteata, 168 h, read-out: efficacy) worked out at 100%. For the same compound, the pest or weed control at 4 ppm in the data set on Myzus persicae [1] (setting [5]) is 100%. Further, the pest or weed control at 500 g/ha in the data set with Myzus persicae [2] (Myzus persicae, foliar, 120 h, read-out: efficacy) came to 90%.

As to `O=C(c1cccc(C(F)(F)F)c1)c1c([O-])[n+]2ccccc2n1Cc1cncnc1` [Example I-049], the efficacy with Myzus persicae [1] (application rate 4 ppm) is reported as 100%; in the data set with Myzus persicae [2], 90%.

`O=C(OCC(F)F)C(=O)c1c([O-])[n+]2ccccc2n1Cc1cnc(Cl)s1` [Example I-051]: the efficacy is 100% in the data set on Myzus persicae [1] (application rate 4 ppm) and 90% in the data set with Myzus persicae [2].

In turn, `O=C(OCCc1ccccc1)C(=O)c1c([O-])[n+]2ccccc2n1Cc1cnc(Cl)s1` [Example I-052] showed an efficacy with Myzus persicae [1] (application rate 4 ppm) of 100%.

In the case of `O=C(OCc1ccccc1)C(=O)c1c([O-])[n+]2ccccc2n1Cc1cnc(Cl)s1` [Example I-053], the efficacy with Myzus persicae [1] (application rate 4 ppm) amounted to 100%.

Take `O=C(OCCC(F)(F)F)C(=O)c1c([O-])[n+]2ccccc2n1Cc1cnc(Cl)s1` [Example I-054]: the efficacy in the data set on Myzus persicae [1] (application rate 4 ppm) was found to be 100%; in the data set on Myzus persicae [2], 70%.

Take `C#CCOC(=O)C(=O)c1c([O-])[n+]2ccccc2n1Cc1cnc(Cl)s1` [Example I-055]: the efficacy is 100% in the data set on Myzus persicae [1] (application rate 4 ppm) and 90% in the data set with Myzus persicae [2].

Consider `CC(C)=CCOC(=O)C(=O)c1c([O-])[n+]2ccccc2n1Cc1cnc(Cl)s1` [Example I-057], for which the efficacy came to 100% in the data set on Myzus persicae [1] (application rate 4 ppm) and 90% in the data set on Myzus persicae [2].

Turning to `CC(C)(C)OC(=O)C(=O)c1c([O-])[n+]2ccccc2n1Cc1cnc(Cl)s1` [Example I-066], the efficacy in the data set with Myzus persicae [1] (application rate 4 ppm) and in the data set on Myzus persicae [2] was 90% throughout.

For the compound `O=C(c1c([O-])[n+]2cccc(C3CC3)c2n1Cc1cnc(Cl)s1)C(F)(F)F` [Example I-078, 1-[(2-chlorothiazol-5-yl)methyl]-8-cyclopropyl-2-(2,2,2-trifluoroacetyl)imidazo[1,2-a]pyridin-4-ium-3-olate], the chromatographic logP in data set [3] (setting [4]) was 2.48.

With `O=C(COCc1ccnc(Cl)c1)c1c([O-])[n+]2ccccc2n1Cc1ccc(Cl)nc1` [Example I-084, 2-[2-[(2-chloro-4-pyridyl)methoxy]acetyl]-1-[(6-chloro-3-pyridyl)methyl]imidazo[1,2-a]pyridin-4-ium-3-olate], the chromatographic logP in data set [3] came to 1.73.

In the case of `O=C(c1c([O-])[n+]2cccc(-c3ccccc3)c2n1Cc1cnc(Cl)s1)C(F)(F)F` [Example I-109, 1-[(2-chlorothiazol-5-yl)methyl]-8-phenyl-2-(2,2,2-trifluoroacetyl)imidazo[1,2-a]pyridin-4-ium-3-olate], the chromatographic logP in data set [3] (setting [4]) turned out to be 2.99.

`O=C(c1c([O-])[n+]2cccc(I)c2n1Cc1cnc(Cl)s1)C(F)(F)F` [Example I-112, 1-[(2-chlorothiazol-5-yl)methyl]-8-iodo-2-(2,2,2-trifluoroacetyl)imidazo[1,2-a]pyridin-4-ium-3-olate]: the chromatographic logP in data set [3] was determined as 2.37.

As for `O=C(O)CN(Cc1cnc(Cl)s1)c1ccccn1` [Example V-1-001, 2-[(2-Chlorothiazol-5-yl)methyl-(2-pyridyl)amino]acetic Acid], the chromatographic logP in data set [3] turned out to be 1.21.

`CC(C)(C)OC(=O)CN(Cc1cnc(Cl)s1)c1ncccc1I` [IV-2-002] yielded a chromatographic logP in data set [3] of 4.62.

On to `CC(C)(C)OC(=O)CN(Cc1cnc(Cl)s1)c1ncccc1C1CC1` [IV-2-003], for which the chromatographic logP in data set [3] (setting [4]) came to 4.73.

As for `Cc1ccc[n+]2c(O)cn(Cc3cnc(Cl)s3)c12` [VII-1-001, 1-[(2-Chlorothiazol-5-yl)methyl]-8-methylimidazo[1,2-a]pyridin-4-ium-3-ol; 2,2,2-trifluoroacetate], the chromatographic logP in data set [3] (setting [4]) worked out at 0.75.

On to `Oc1cn(Cc2cnc(Cl)s2)c2c(I)ccc[n+]12` [VII-1-002, 1-[(2-chlorothiazol-5-yl)methyl]-8-iodoimidazo[1,2-a]pyridin-4-ium-3-ol 2,2,2-trifluoroacetate], for which the chromatographic logP in data set [3] (setting [4]) is 1.22.

As for `Oc1cn(Cc2cnc(Cl)s2)c2c(C3CC3)ccc[n+]12` [VII-1-003, 1-[(2-chlorothiazol-5-yl)methyl]-8-cyclopropylimidazo[1,2-a]pyridin-4-ium-3-ol 2,2,2-trifluoroacetate], the chromatographic logP in data set [3] (setting [4]) was 1.27.

In data set [3], `CC(C)(C)OC(=O)CN(Cc1cnc(Cl)s1)c1ccccn1` [tert-Butyl 2-[(2-chlorothiazol-5-yl)methyl-(2-pyridyl)amino]acetate] gave a chromatographic logP of 3.59.

In data set [3], `Cc1cccnc1N(CC(=O)OC(C)(C)C)Cc1cnc(Cl)s1` [tert-Butyl 2-[(2-chlorothiazol-5-yl)methyl-(3-methyl-2-pyridyl)amino]acetate] showed a chromatographic logP of 4.13.

The values above are taken from US20200037600A1, “MESOIONIC IMIDAZOPYRIDINES AS INSECTICIDES” (Bayer Aktiengesellschaft, priority 2017, published 2020).
